This assay has as its target T1, DDR2 (Homo sapiens, UniProt Q16832).
T1 construct: purchased Thermo Fisher Scientific (Life Technologies) SelectScreen
In words: SelectScreen LanthaScreen. The assay is classed as binding. The settings on record: read-out: % displacement. The procedure, abridged:
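Percent values come from Thermo SelectScreen profiling of NU5455, combining activity and binding assays. CSF1R was run in Z'LYTE format at Km app ATP, and CAMK1 in Adapta format with ATP listed at 10.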

T1 sequence (Q16832 22-855): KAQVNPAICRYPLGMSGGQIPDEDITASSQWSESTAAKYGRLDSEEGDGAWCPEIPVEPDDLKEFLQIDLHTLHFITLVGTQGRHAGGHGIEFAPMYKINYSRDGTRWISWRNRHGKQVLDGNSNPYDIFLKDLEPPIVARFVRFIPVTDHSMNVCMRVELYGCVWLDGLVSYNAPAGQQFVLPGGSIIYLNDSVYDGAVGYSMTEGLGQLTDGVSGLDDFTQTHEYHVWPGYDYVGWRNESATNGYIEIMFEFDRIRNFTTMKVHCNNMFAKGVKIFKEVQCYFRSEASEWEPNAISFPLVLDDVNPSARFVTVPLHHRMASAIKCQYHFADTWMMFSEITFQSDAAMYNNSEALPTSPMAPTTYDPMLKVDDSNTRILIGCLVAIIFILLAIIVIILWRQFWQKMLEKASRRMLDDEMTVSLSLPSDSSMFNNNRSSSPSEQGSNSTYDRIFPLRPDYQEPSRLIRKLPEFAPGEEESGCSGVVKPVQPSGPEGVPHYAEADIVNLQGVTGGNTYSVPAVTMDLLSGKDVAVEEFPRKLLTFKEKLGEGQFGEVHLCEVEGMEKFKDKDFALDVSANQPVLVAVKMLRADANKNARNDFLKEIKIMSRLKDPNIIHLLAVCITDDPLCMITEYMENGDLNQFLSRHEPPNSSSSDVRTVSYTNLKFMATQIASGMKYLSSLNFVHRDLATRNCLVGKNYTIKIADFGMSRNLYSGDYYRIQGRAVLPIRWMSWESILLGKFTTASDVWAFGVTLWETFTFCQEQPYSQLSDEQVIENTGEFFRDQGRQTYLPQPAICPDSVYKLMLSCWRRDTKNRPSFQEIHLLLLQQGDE

Turning to `CN(C(=O)CN1CCOCC1)c1ccc2sc3c(-c4cccc5c(=O)cc(N6CC7CCC(C6)O7)oc45)cccc3c2c1` [NU5455], the inhibition at 1 µM came to 0.7%.

Source of the values: PMC6934184, “Selective DNA-PKcs inhibition extends the therapeutic index of localized radiotherapy and chemotherapy” (The Journal of Clinical Investigation, 2019).
